Laboratory results taken from ChEMBL document CHEMBL3813645, “Design, synthesis of 2,3-disubstitued 4(3H)-quinazolinone derivatives as anti-inflammatory and analgesic agents: COX-1/2 inhibitory activities and molecular docking studies” (Bioorg Med Chem, 2016).

Tests used:
Mus musculus = assay: Analgesic activity in ip dosed albino Swiss mouse assessed as nociceptive response measured after 60 mins by hot plate method; format: functional; conditions: 1 h
Rattus norvegicus = assay: Antiinflammatory activity in ip dosed rat carrageenan-induced foot paw edema model measured after 2 hrs by plethysmometric analysis; format: functional
[1] = target: T1, Prostaglandin G/H synthase 1 (Ovis aries, UniProt P05979); assay: Inhibition of ovine COX1 using arachidonic acid as substrate preincubated for 5 mins followed by substrate addition by ELISA
T1 sequence (P05979 whole entry): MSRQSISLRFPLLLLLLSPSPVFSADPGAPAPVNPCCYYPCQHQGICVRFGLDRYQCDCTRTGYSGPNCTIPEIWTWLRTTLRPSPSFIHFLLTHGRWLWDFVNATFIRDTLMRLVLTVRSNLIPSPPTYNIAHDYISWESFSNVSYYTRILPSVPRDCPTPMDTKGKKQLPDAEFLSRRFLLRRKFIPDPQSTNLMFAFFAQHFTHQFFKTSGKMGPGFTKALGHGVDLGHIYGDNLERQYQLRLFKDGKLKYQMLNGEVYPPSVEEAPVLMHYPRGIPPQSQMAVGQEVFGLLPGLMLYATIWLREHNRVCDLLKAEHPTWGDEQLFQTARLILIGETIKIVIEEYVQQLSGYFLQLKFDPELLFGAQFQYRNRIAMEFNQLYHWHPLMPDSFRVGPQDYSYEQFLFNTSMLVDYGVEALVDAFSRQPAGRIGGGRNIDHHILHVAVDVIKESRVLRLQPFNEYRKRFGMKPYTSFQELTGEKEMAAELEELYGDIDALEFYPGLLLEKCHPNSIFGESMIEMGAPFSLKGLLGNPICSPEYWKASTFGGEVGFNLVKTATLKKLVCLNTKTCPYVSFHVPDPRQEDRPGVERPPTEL

Question: With `Cc1ccc(-c2cc(C(F)(F)F)nn2-c2ccc(S(N)(=O)=O)cc2)cc1` [CELECOXIB] as the molecule, how does the ED50 (Mus musculus) read?
Answer: 71 mg/kg

Question: For `O=C(CSc1nc2ccccc2c(=O)n1CCc1ccccn1)Nc1ccccc1`, which ED50 (Rattus norvegicus) is on record?
Answer: > 200 mg/kg

Question: With `COc1ccc(S(=O)(=O)NNC(=O)CSc2nc3ccccc3c(=O)n2CCc2ccccn2)cc1OC` as the molecule, how does the ED50 (Rattus norvegicus) read?
Answer: > 200 mg/kg

Question: How did the ED50 (Mus musculus) turn out when `COc1ccc(/C=N/NC(=O)CSc2nc3ccccc3c(=O)n2CCc2ccccn2)cc1OC` was run?
Answer: 78.5 mg/kg

Question: What about the ED50 (Rattus norvegicus) of the same molecule?
Answer: 112 mg/kg

Question: What does the source list for `COc1ccc(NC(=O)CSc2nc3ccccc3c(=O)n2CCc2ccccn2)cc1`?
Answer: ED50 (Mus musculus): 111 mg/kg; IC50 [1]: > 100 µM; ED50 (Rattus norvegicus): 81.5 mg/kg

Question: For `O=C(CSc1nc2ccccc2c(=O)n1CCc1ccccn1)NCc1ccccc1`, which ED50 (Rattus norvegicus) is on record?
Answer: > 200 mg/kg

Question: How did the ED50 (Mus musculus) turn out when `O=C(CSc1nc2ccccc2c(=O)n1CCc1ccccn1)Nc1ccc(F)cc1` was run?
Answer: 12.3 mg/kg

Question: What about the IC50 [1] of the same molecule?
Answer: > 100 µM

Question: What about the ED50 (Rattus norvegicus) of the same molecule?
Answer: 50.3 mg/kg

Question: For `NC(=O)CSc1nc2ccccc2c(=O)n1CCc1ccccn1`, which ED50 (Rattus norvegicus) is on record?
Answer: > 200 mg/kg

Question: How did the ED50 (Rattus norvegicus) turn out when `O=C(CSc1nc2ccccc2c(=O)n1CCc1ccccn1)NNS(=O)(=O)c1ccccc1` was run?
Answer: > 200 mg/kg

Question: Which results are given for `O=c1c2ccccc2nc(S)n1CCc1ccccn1`?
Answer: ED50 (Mus musculus): 98.2 mg/kg; IC50 [1]: > 100 µM; ED50 (Rattus norvegicus): 102 mg/kg

Question: What does the source list for `COc1cc(NC(=O)CCSc2nc3ccccc3c(=O)n2CCc2ccccn2)cc(OC)c1OC`?
Answer: ED50 (Mus musculus): 80.3 mg/kg; IC50 [1]: > 100 µM; ED50 (Rattus norvegicus): 74.2 mg/kg

Question: For `COc1cc(NC(=O)CSc2nc3ccccc3c(=O)n2CCc2ccccn2)cc(OC)c1OC`, which ED50 (Mus musculus) is on record?
Answer: 60.3 mg/kg

Question: What about the IC50 [1] of the same molecule?
Answer: > 100 µM

Question: And the ED50 (Rattus norvegicus)?
Answer: 65.3 mg/kg

Question: With `COc1ccc(C(=O)CSc2nc3ccccc3c(=O)n2CCc2ccccn2)cc1` as the molecule, how does the ED50 (Rattus norvegicus) read?
Answer: > 200 mg/kg

Question: Which ED50 (Rattus norvegicus) does the source give for `O=C(CSc1nc2ccccc2c(=O)n1CCc1ccccn1)NNS(=O)(=O)c1ccc(Br)cc1` here?
Answer: > 200 mg/kg

Question: Which ED50 (Mus musculus) does the source give for `O=C(O)Cc1ccccc1Nc1c(Cl)cccc1Cl` [DICLOFENAC] here?
Answer: 100 mg/kg

Question: And the ED50 (Rattus norvegicus)?
Answer: 112 mg/kg

Question: How did the ED50 (Mus musculus) turn out when `O=C(CSc1nc2ccccc2c(=O)n1CCc1ccccn1)N/N=C/c1ccccc1` was run?
Answer: 54.5 mg/kg

Question: And the ED50 (Rattus norvegicus)?
Answer: 104 mg/kg

Question: With `CCOC(=O)CSc1nc2ccccc2c(=O)n1CCc1ccccn1` as the molecule, how does the ED50 (Rattus norvegicus) read?
Answer: > 200 mg/kg

Question: Which results are given for `O=C(CSc1nc2ccccc2c(=O)n1CCc1ccccn1)c1ccc(F)cc1`?
Answer: ED50 (Mus musculus): 78.1 mg/kg; IC50 [1]: > 100 µM; ED50 (Rattus norvegicus): 91.2 mg/kg

Question: How did the ED50 (Rattus norvegicus) turn out when `COc1cc(/C=N/NC(=O)CSc2nc3ccccc3c(=O)n2CCc2ccccn2)cc(OC)c1OC` was run?
Answer: > 200 mg/kg

Question: For `O=C(CSc1nc2ccccc2c(=O)n1CCc1ccccn1)N/N=C/c1ccc(Cl)cc1`, which ED50 (Mus musculus) is on record?
Answer: 33.7 mg/kg

Question: And the ED50 (Rattus norvegicus)?
Answer: 66.6 mg/kg

Question: For `O=C(CSc1nc2ccccc2c(=O)n1CCc1ccccn1)c1ccccc1`, which ED50 (Rattus norvegicus) is on record?
Answer: > 200 mg/kg

Question: For `NNC(=O)CSc1nc2ccccc2c(=O)n1CCc1ccccn1`, which ED50 (Mus musculus) is on record?
Answer: 40.3 mg/kg

Question: And the IC50 [1]?
Answer: > 100 µM

Question: And the ED50 (Rattus norvegicus)?
Answer: 74.5 mg/kg

Question: With `COc1ccc(/C=N/NC(=O)CSc2nc3ccccc3c(=O)n2CCc2ccccn2)cc1` as the molecule, how does the ED50 (Mus musculus) read?
Answer: 50.3 mg/kg

Question: And the ED50 (Rattus norvegicus)?
Answer: 67.5 mg/kg
